Results published in US11590236B2, “Compositions and methods for altering macrophage phenotype” (priority 2019, dated 2023).

System: macrophages differentiated from human peripheral blood monocytes
Assay: Cell death / viability of macrophages after drug exposure
Format: cell-based
Details: all concentrations tested
Experimental: As with Cu(II)-tilmanocept, MT1001.8 was evaluated using macrophages differentiated from human peripheral blood monocytes cultured in supplemented RPMI-1640 medium to which GM-CSF was added. The resulting macrophages were then exposed for 23 hours to MT1001.8 at different concentrations ranging from 0 (controls) to 6.68 μM. Free doxorubicin and the mannosylated dextran construct without the doxorubicin payload were also evaluated as controls. After the 23-hour exposure to the drug construct, the drug containing media were removed and replaced with fresh supplemented RPMI-1640 with GM-CSF and incubated for an additional 72 hours. This final 72-hour incubation in fresh medium was to permit the macrophages to recover from the drug treatment and to manifest any phenotype changes that might have been induced by exposure to the drug construct. All experiments were replicated 5-8 times with peripheral blood monocytes obtained from 5 separate donors. After the last 72-hour incubation, the media were collected and analyzed for their concentrations of various cytokines.

Compound: COc1cccc2c1C(=O)c1c(O)c3c(c(O)c1C2=O)C[C@@](O)(C(=O)CO)C[C@@H]3O[C@H]1C[C@H](N)[C@H](O)[C@H](C)O1 [free doxorubicin, doxorubicin]
- cell death: high levels of cell death
